# Data taken from PubChem BioAssay (NCI).
#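 Step 1: Grow cells in 96-well plates. Step 2: Expose to compound for 48 hours at 5 concentrations. Step 3: Interpolate endpoints linearly; if unreached, use highest concentration. At the TGI there is no net growth.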
# Key:
# Test in all cases: growth of human tumour cells (NCI), 48 h
# 786-0 renal = tested on: 786-0 renal
# SK-OV-3 ovarian = tested on: SK-OV-3 ovarian
# SNB-75 CNS = tested on: SNB-75 CNS
# KM12 colon = tested on: KM12 colon
# HCC-2998 colon = tested on: HCC-2998 colon
# MDA-N = tested on: MDA-N
# UACC-62 melanoma = tested on: UACC-62 melanoma
# T-47D breast = tested on: T-47D breast
# A549 NSCLC = tested on: A549 NSCLC
# CAKI-1 renal = tested on: CAKI-1 renal
# MDA-MB-435 = tested on: MDA-MB-435
# LOX IMVI melanoma = tested on: LOX IMVI melanoma
# A498 renal = tested on: A498 renal
# NCI/ADR-RES ovarian = tested on: NCI/ADR-RES ovarian
# OVCAR-5 ovarian = tested on: OVCAR-5 ovarian
# HOP-62 NSCLC = tested on: HOP-62 NSCLC
# NCI-H460 lung = tested on: NCI-H460 lung
# ACHN renal = tested on: ACHN renal
# IGROV1 ovarian = tested on: IGROV1 ovarian
# OVCAR-3 ovarian = tested on: OVCAR-3 ovarian
# UACC-257 melanoma = tested on: UACC-257 melanoma
# HCT-15 colon = tested on: HCT-15 colon
# CCRF-CEM leukemia = tested on: CCRF-CEM leukemia
# SN12C renal = tested on: SN12C renal
# SF-268 CNS = tested on: SF-268 CNS
# HL-60(TB) leukemia = tested on: HL-60(TB) leukemia
# U251 CNS = tested on: U251 CNS
# SW-620 colon = tested on: SW-620 colon
# SF-539 CNS = tested on: SF-539 CNS
# HT29 colon = tested on: HT29 colon
# SK-MEL-5 melanoma = tested on: SK-MEL-5 melanoma
# NCI-H23 lung = tested on: NCI-H23 lung
# SR leukemia = tested on: SR leukemia
# OVCAR-4 ovarian = tested on: OVCAR-4 ovarian
# MOLT-4 leukemia = tested on: MOLT-4 leukemia
# MDA-MB-231 breast = tested on: MDA-MB-231 breast
# COLO 205 colon = tested on: COLO 205 colon
# HOP-92 NSCLC = tested on: HOP-92 NSCLC
# PC-3 prostate = tested on: PC-3 prostate
# SK-MEL-28 melanoma = tested on: SK-MEL-28 melanoma
# EKVX NSCLC = tested on: EKVX NSCLC
# RXF 393 renal = tested on: RXF 393 renal
# HCT-116 colon = tested on: HCT-116 colon
# SNB-19 CNS = tested on: SNB-19 CNS
# RPMI-8226 leukemia = tested on: RPMI-8226 leukemia
# MCF7 breast = tested on: MCF7 breast
# NCI-H522 lung = tested on: NCI-H522 lung
# OVCAR-8 ovarian = tested on: OVCAR-8 ovarian
# UO-31 renal = tested on: UO-31 renal
# TK-10 renal = tested on: TK-10 renal
# HS 578T breast = tested on: HS 578T breast
# SF-295 CNS = tested on: SF-295 CNS
# M14 melanoma = tested on: M14 melanoma
# DU-145 prostate = tested on: DU-145 prostate
compound,measurement,setting,value
C=CC(C)(C)/C(=C\CO[Si](C(C)C)(C(C)C)C(C)C)C(=O)N(C)c1ccccc1I,TGI,786-0 renal,27.6 µM
same,TGI,SK-OV-3 ovarian,33.1 µM
same,TGI,SNB-75 CNS,31.7 µM
same,TGI,KM12 colon,> 100 µM
same,TGI,HCC-2998 colon,26 µM
same,TGI,MDA-N,33.6 µM
same,TGI,UACC-62 melanoma,28.7 µM
same,TGI,T-47D breast,25.3 µM
same,TGI,A549 NSCLC,23.9 µM
same,TGI,CAKI-1 renal,44 µM
same,TGI,MDA-MB-435,73.9 µM
same,TGI,LOX IMVI melanoma,27.4 µM
same,TGI,A498 renal,46 µM
same,TGI,NCI/ADR-RES ovarian,37.6 µM
same,TGI,OVCAR-5 ovarian,27.5 µM
same,TGI,HOP-62 NSCLC,35.8 µM
same,TGI,NCI-H460 lung,28.1 µM
same,TGI,ACHN renal,25.8 µM
same,TGI,IGROV1 ovarian,30.3 µM
same,TGI,OVCAR-3 ovarian,26.2 µM
same,TGI,UACC-257 melanoma,28.7 µM
same,TGI,HCT-15 colon,30.8 µM
same,TGI,CCRF-CEM leukemia,22.6 µM
same,TGI,SN12C renal,29.7 µM
same,TGI,SF-268 CNS,24.5 µM
same,TGI,HL-60(TB) leukemia,11.4 µM
same,TGI,U251 CNS,25 µM
same,TGI,SW-620 colon,26.1 µM
same,TGI,SF-539 CNS,33 µM
same,TGI,HT29 colon,27.1 µM
same,TGI,SK-MEL-5 melanoma,32.1 µM
same,TGI,NCI-H23 lung,23.6 µM
same,TGI,SR leukemia,27.7 µM
same,TGI,OVCAR-4 ovarian,68.1 µM
same,TGI,MOLT-4 leukemia,25.2 µM
same,TGI,MDA-MB-231 breast,28.9 µM
same,TGI,COLO 205 colon,31.5 µM
same,TGI,HOP-92 NSCLC,22.2 µM
same,TGI,PC-3 prostate,12.6 µM
same,TGI,SK-MEL-28 melanoma,29.4 µM
same,TGI,EKVX NSCLC,32.1 µM
same,TGI,RXF 393 renal,24.5 µM
same,TGI,HCT-116 colon,17 µM
same,TGI,SNB-19 CNS,28.1 µM
same,TGI,RPMI-8226 leukemia,8.54 µM
same,TGI,MCF7 breast,26.1 µM
same,TGI,NCI-H522 lung,19 µM
same,TGI,OVCAR-8 ovarian,28 µM
same,TGI,UO-31 renal,25.9 µM
same,TGI,TK-10 renal,26.2 µM
same,TGI,HS 578T breast,27.1 µM
same,TGI,SF-295 CNS,28.8 µM
same,TGI,M14 melanoma,33.6 µM
same,TGI,DU-145 prostate,29.4 µM
